In ChEMBL document CHEMBL5137015, “Design, synthesis, and evaluation of a novel series of mono-indolylbenzoquinones derivatives for the potential treatment of breast cancer” (Eur J Med Chem, 2022):
Active and inactive are the calls of the source. The calls are words filed in the database; no cut-off is given here.

Legend:
MDA-MB-231 [1] = assay: Induction of apoptosis in human MDA-MB-231 cells assessed as late apoptotic cells by measuring red fluorescence at 0.01 to 1 uM by PI staining based fluorescence microscopic analysis; assay type: functional, cell-based; settings: dose 0.01-1 µM
MDA-MB-231 [2] = assay: Induction of cell cycle arrest in human MDA-MB-231 cells assessed as decrease in G1 phase cells at 10 uM incubated for 24 hrs by PI staining based flow cytometric analysis (reference value: 74.44%); assay type: functional; set-up: scale not given: the % may be the effect or the level left
[3] = Drug metabolism in Balb/c mouse liver implanted with mouse 4T1 cells assessed as dechlorination of parent compound causing metabolite formation by LC-MS analysis; assay type: ADME, tissue-based
[4] = Toxicity in Balb/c mouse implanted with mouse 4T1 cells assessed as spleen lesions at 50 mg/kg, ip administered every two days for 14 days by H&E staining based histopathological analysis; assay type: organism-based; settings: in vivo, 336 h, time 14 day
4T1 [5] = assay: Antitumor activity against mouse 4T1 cells implanted in Balb/c mouse assessed as tumor growth inhibition by measuring T/C ratio at 50 mg/kg administered intratumorally every four days for 14 days in the presence of liquid cyanoacrylate; assay type: functional; settings: route it(Intratumoral), time 14 day
4T1 [6] = assay: Antitumor activity against mouse 4T1 cells implanted in Balb/c mouse assessed as nuclei disappearance at 50 mg/kg administered intratumorally every four days for 14 days in the presence of liquid cyanoacrylate; assay type: functional, organism-based; settings: route it(Intratumoral), time 14.0 day
[7] = Acute toxicity in mouse assessed as death rate ratio at 600 mg/kg, ip measured over 14 days; assay type: organism-based; settings: in vivo, 336 h, time 14 day
[8] = Drug metabolism in Balb/c mouse kidney implanted with mouse 4T1 cells assessed as dechlorination of parent compound causing metabolite formation by LC-MS analysis; assay type: ADME, tissue-based
HeLa = assay: Antiproliferative activity against human HeLa cells assessed as inhibition of cell growth by MTT assay; assay type: functional, cell-based
[9] = Drug metabolism in Balb/c mouse spleen implanted with mouse 4T1 cells assessed as 2-methyl hydroxylation of parent compound causing metabolite formation by LC-MS analysis; assay type: ADME, tissue-based
4T1 [10] = assay: Antitumor activity aginst mouse 4T1 cells implanted in Balb/c mouse assessed as nuclei disappearance at 50 mg/kg, ip administered every two days for 14 days; assay type: functional, organism-based; settings: time 14.0 day
MDA-MB-231 [11] = assay: Induction of apoptosis in human MDA-MB-231 cells assessed as increase in HTRA2/omi level at 100 nM incubated for 48 hrs; assay type: functional, cell-based
MDA-MB-231 [12] = assay: Induction of apoptosis in human MDA-MB-231 cells assessed as increase in cytochrome C expression at 0.5 to 3 times of IC50 concentration by Western blot analysis; assay type: functional, cell-based
MDA-MB-231 [13] = assay: Induction of apoptosis in human MDA-MB-231 cells assessed as decrease in Bcl-2/Bax ratio at 0.5 to 3 times of IC50 concentration by Western blot analysis; assay type: functional, cell-based
[14] = Toxicity in Balb/c mouse implanted with mouse 4T1 cells assessed as heart lesions at 50 mg/kg, ip administered every two days for 14 days by H&E staining based histopathological analysis; assay type: organism-based; settings: in vivo, 336 h, time 14 day
4T1 [15] = assay: Antitumor activity against mouse 4T1 cells xenografted in Balb/c mouse assessed as disordered nuclei at 200 mg/kg administered topically over the tumor surface every two days for 14 days in the presence of cyanoacrylate; assay type: functional, organism-based; settings: route top, time 14.0 day
MDA-MB-231 [16] = assay: Induction of apoptosis in human MDA-MB-231 cells assessed as apoptotic cells at 10 uM incubated for 24 hrs by Annexin V-FITC/propidium iodide staining based flow cytometric method (reference value: 5.68%); assay type: functional
[17] = Acute toxicity in mouse assessed as death rate ratio at 476 mg/kg, ip measured over 14 days; assay type: organism-based; settings: in vivo, 336 h, time 14 day
4T1 [18] = assay: Antitumor activity against mouse 4T1 cells xenografted in Balb/c mouse assessed as tumor growth inhibition at 50 mg/kg, ip administered every two days for 14 days; assay type: functional; set-up: scale not given: the % may be the effect or the level left; settings: time 14 day
MDA-MB-231 [19] = assay: Induction of apoptosis in human MDA-MB-231 cells assessed as increase in caspase 9 expression at 0.5 to 3 times of IC50 concentration by Western blot analysis; assay type: functional, cell-based
MDA-MB-231 [20] = assay: Induction of apoptosis in human MDA-MB-231 cells assessed as change in membrane osmotic transport capacity; assay type: functional, cell-based
A549 = assay: Antiproliferative activity against human A549 cells assessed as inhibition of cell growth by MTT assay; assay type: functional, cell-based
[21] = Toxicity in Balb/c mouse implanted with mouse 4T1 cells assessed as effect on body weight at 50 mg/kg administered intratumorally every four days for 14 days in the presence of liquid cyanoacrylate; assay type: organism-based; settings: in vivo, other, 336 h, route it(Intratumoral), time 14 day
[22] = Drug metabolism in Balb/c mouse tumor implanted with mouse 4T1 cells assessed as dechlorination of parent compound causing metabolite formation by LC-MS analysis; assay type: ADME, tissue-based, Neoplasm
[23] = Toxicity in Balb/c mouse implanted with mouse 4T1 cells assessed as effect on body weight at 50 mg/kg administered intratumorally every four days for 14 days; assay type: organism-based; settings: in vivo, other, 336 h, route it(Intratumoral), time 14 day
MDA-MB-231 [24] = assay: Induction of apoptosis in human MDA-MB-231 cells assessed as deep cytoplasm at 1 uM incubated for 24 hrs by transmission electron microscopic analysis; assay type: functional, cell-based
MDA-MB-231 [25] = assay: Induction of apoptosis in human MDA-MB-231 cells assessed as increase in caspase 3 expression at 0.5 to 3 times of IC50 concentration by Western blot analysis; assay type: functional, cell-based
[26] = Toxicity in Balb/c mouse implanted with mouse 4T1 cells assessed as heart lesions at 50 mg/kg administered intratumorally every four days for 14 days in the presence of liquid cyanoacrylate by H&E staining based histopathological analysis; assay type: organism-based; settings: in vivo, other, 336 h, route it(Intratumoral), time 14 day
[27] = Toxicity in Balb/c mouse implanted with mouse 4T1 cells assessed as kidney lesions at 50 mg/kg administered intratumorally every four days for 14 days by H&E staining based histopathological analysis; assay type: organism-based; settings: in vivo, other, 336 h, route it(Intratumoral), time 14 day
[28] = Toxicity in Balb/c mouse implanted with mouse 4T1 cells assessed as kidney lesions at 50 mg/kg administered intratumorally every four days for 14 days in the presence of liquid cyanoacrylate by H&E staining based histopathological analysis; assay type: organism-based; settings: in vivo, other, 336 h, route it(Intratumoral), time 14 day
MDA-MB-231 [29] = assay: Induction of apoptosis in human MDA-MB-231 cells assessed as increase in catalase level at 100 nM incubated for 48 hrs; assay type: functional, cell-based
4T1 [30] = assay: Antitumor activity aginst mouse 4T1 cells implanted in Balb/c mouse assessed as nuclei shrinkage at 50 mg/kg, ip administered every two days for 14 days; assay type: functional, organism-based; settings: time 14.0 day
[31] = Toxicity in Balb/c mouse implanted with mouse 4T1 cells assessed as lung lesions at 50 mg/kg administered intratumorally every four days for 14 days by H&E staining based histopathological analysis; assay type: organism-based; settings: in vivo, other, 336 h, route it(Intratumoral), time 14 day
[32] = Toxicity in Balb/c mouse implanted with mouse 4T1 cells assessed as effect on body weight at 50 mg/kg, ip administered every two days for 14 days; assay type: organism-based; settings: in vivo, 336 h, time 14 day
[33] = Toxicity in Balb/c mouse implanted with mouse 4T1 cells assessed as lung lesions at 50 mg/kg administered intratumorally every four days for 14 days in the presence of liquid cyanoacrylate by H&E staining based histopathological analysis; assay type: organism-based; settings: in vivo, other, 336 h, route it(Intratumoral), time 14 day
[34] = Toxicity in Balb/c mouse implanted with mouse 4T1 cells assessed as spleen lesions at 50 mg/kg administered intratumorally every four days for 14 days by H&E staining based histopathological analysis; assay type: organism-based; settings: in vivo, other, 336 h, route it(Intratumoral), time 14 day
[35] = Toxicity in Balb/c mouse implanted with mouse 4T1 cells assessed as spleen lesions at 50 mg/kg administered intratumorally every four days for 14 days in the presence of liquid cyanoacrylate by H&E staining based histopathological analysis; assay type: organism-based; settings: in vivo, other, 336 h, route it(Intratumoral), time 14 day

Q: Which Activity (MDA-MB-231 [1]) does the source give for `Cc1[nH]c2ccccc2c1C1=C(Cl)C(=O)C(Cl)=C(N2CCOCC2)C1=O` here?
A: Active

Q: And the Activity (MDA-MB-231 [2])?
A: 16.84%

Q: What about the Drug metabolism [3] of the same molecule?
A: Metabolite_Detected

Q: And the Activity [4]?
A: Non-Toxic

Q: What about the T/C (4T1 [5]) of the same molecule?
A: 42%

Q: What about the Activity (4T1 [6]) of the same molecule?
A: Active

Q: What about the Ratio [7] of the same molecule?
A: 1

Q: What about the Drug metabolism [8] of the same molecule?
A: Metabolite_Detected

Q: And the IC50 (HeLa)?
A: 320 nM

Q: What about the Drug metabolism [9] of the same molecule?
A: Metabolite_Detected

Q: What about the Activity (4T1 [10]) of the same molecule?
A: Active

Q: And the Activity (MDA-MB-231 [11])?
A: Active

Q: And the Activity (MDA-MB-231 [12])?
A: Active

Q: And the Activity (MDA-MB-231 [13])?
A: Active

Q: And the Activity [14]?
A: Non-Toxic

Q: What about the Activity (4T1 [15]) of the same molecule?
A: Active

Q: What about the Activity (MDA-MB-231 [16]) of the same molecule?
A: 31.69%

Q: And the Ratio [17]?
A: 0.66

Q: And the Activity (4T1 [18])?
A: 36%

Q: What about the Activity (MDA-MB-231 [19]) of the same molecule?
A: Active

Q: And the Activity (MDA-MB-231 [20])?
A: Active

Q: What about the IC50 (A549) of the same molecule?
A: 210 nM

Q: What about the Activity [21] of the same molecule?
A: Non-Toxic

Q: What about the Drug metabolism [22] of the same molecule?
A: Metabolite_Detected

Q: And the Activity [23]?
A: Non-Toxic

Q: What about the Activity (MDA-MB-231 [24]) of the same molecule?
A: Active

Q: And the Activity (MDA-MB-231 [25])?
A: Active

Q: What about the Activity [26] of the same molecule?
A: Non-Toxic

Q: And the Activity [27]?
A: Non-Toxic

Q: What about the Activity [28] of the same molecule?
A: Non-Toxic

Q: And the Activity (MDA-MB-231 [29])?
A: Active

Q: What about the Activity (4T1 [30]) of the same molecule?
A: Active

Q: And the Activity [31]?
A: Non-Toxic

Q: What about the Activity [32] of the same molecule?
A: Non-Toxic

Q: What about the Activity [33] of the same molecule?
A: Non-Toxic

Q: And the Activity [34]?
A: Non-Toxic

Q: What about the Activity [35] of the same molecule?
A: Non-Toxic
